“And” between values parts separate entries of the source, which are not always exact repeats. Identical values can stand only once.
Each compound was assayed against T1, Tyrosine-protein kinase SYK [355-635] (Homo sapiens, UniProt P43405) (assay: SYK assay_HTRF).
T1 construct: 355-635

IC50 | Structure (SMILES)
326 nM | O=C(O)COc1ccc(Nc2nccc(Nc3cccc4[nH]ncc34)n2)cc1 [GTC000198A]
490 nM | COC(=O)COc1ccc(Nc2nccc(Nc3cccc4[nH]ncc34)n2)cc1 [GTC000199A]
887 nM and 1810 nM | Cc1noc(NS(=O)(=O)Cc2ccc(Nc3nccc(Nc4cccc5[nH]ncc45)n3)cc2)c1C [GTC000200A]
1100 nM | Cc1nc(NS(=O)(=O)Cc2ccc(Nc3nccc(Nc4cccc5[nH]ncc45)n3)cc2)sc1C [GTC000201A]
706 nM | O=C1CCCN1CCCNS(=O)(=O)Cc1ccc(Nc2nccc(Nc3cccc4[nH]ncc34)n2)cc1 [GTC000202A]
746 nM | O=S(=O)(Cc1ccc(Nc2nccc(Nc3cccc4[nH]ncc34)n2)cc1)NCCCO [GTC000203A]
2070 nM | O=C(COc1ccc(Nc2nccc(Nc3cccc4[nH]ncc34)n2)cc1)NCCCN1CCCC1=O [GTC000204A]
925 nM | Cc1noc(NC(=O)Cc2ccc(Nc3nccc(Nc4cccc5[nH]ncc45)n3)cc2)c1C [GTC000205A]
640 nM | Cc1cc(NC(=O)Cc2ccc(Nc3nccc(Nc4cccc5[nH]ncc45)n3)cc2)no1 [GTC000206A]
232 nM | CS(=O)(=O)Cc1ccc(Nc2nccc(Nc3cccc4[nH]ncc34)n2)cc1 [GTC000207A]
849 nM | COc1ccc(NC(=O)Cc2ccc(Nc3nccc(Nc4cccc5[nH]ncc45)n3)cc2)cc1 [GTC000208A]
524 nM | COc1cccc(NC(=O)Cc2ccc(Nc3nccc(Nc4cccc5[nH]ncc45)n3)cc2)c1 [GTC000209A]
100 nM and 72.8 nM and 258 nM and 524 nM | O=C(O)c1ccc(Nc2nccc(Nc3cccc4[nH]ncc34)n2)cc1 [GTC000210A]
2930 nM | O=C(Cc1ccc(Nc2nccc(Nc3cccc4[nH]ncc34)n2)cc1)Nc1ccc(C(F)(F)F)cc1 [GTC000211A]
1040 nM | O=C(Cc1ccc(Nc2nccc(Nc3cccc4[nH]ncc34)n2)cc1)Nc1cccc(C(F)(F)F)c1 [GTC000212A]
1390 nM | O=C(Cc1ccc(Nc2nccc(Nc3cccc4[nH]ncc34)n2)cc1)Nc1cccc(Cl)c1 [GTC000213A]
1400 nM | O=C(Cc1ccc(Nc2nccc(Nc3cccc4[nH]ncc34)n2)cc1)Nc1ccc(Cl)cc1 [GTC000214A]
676 nM | Cc1nc(NC(=O)Cc2ccc(Nc3nccc(Nc4cccc5[nH]ncc45)n3)cc2)sc1C [GTC000215A]
828 nM | O=C(Cc1ccc(Nc2nccc(Nc3cccc4[nH]ncc34)n2)cc1)Nc1ccncc1 [GTC000216A]
414 nM | CS(=O)(=O)Nc1ccc(Nc2nccc(Nc3cccc4[nH]ncc34)n2)cc1 [GTC000217A]
1260 nM | CNC(=O)Cc1ccc(Nc2nccc(Nc3cccc4[nH]ncc34)n2)cc1 [GTC000218A]

IC50 | Structure (SMILES)
543 nM | O=C(Cc1ccc(Nc2nccc(Nc3cccc4[nH]ncc34)n2)cc1)Nc1cccnc1 [GTC000219A]
916 nM | Cc1ccc(S(=O)(=O)Nc2ccc(Nc3nccc(Nc4cccc5[nH]ncc45)n3)cc2)cc1 [GTC000220A]
164 nM and 78.2 nM and 235 nM | c1cc(Nc2ccnc(Nc3ccc4[nH]ncc4c3)n2)c2cn[nH]c2c1 [GTC000221A]
12.7 nM and 15.6 nM and 9.33 nM | CCN(c1nc(Nc2ccc3c(c2)S(=O)(=O)NC3)ncc1Cl)c1cccc2[nH]ncc12 [GTC000222A]
3.45 nM | O=S1(=O)NCc2ccc(Nc3nccc(N(CCO)c4cccc5[nH]ncc45)n3)cc21 [GTC000223A]
11.1 nM | Cc1ncoc1-c1cccc(Nc2nccc(N(CCCO)c3cccc4[nH]ncc34)n2)c1 [GTC000224A]
20.6 nM and 18.5 nM | Cn1ncc2cc(Nc3nccc(N(CCCO)c4cccc5[nH]ncc45)n3)ccc21 [GTC000225A]
0.412 nM and 0.746 nM and 2.23 nM and 3.35 nM and 0.925 nM and 2.21 nM and 3.52 nM and 3.44 nM | O=S1(=O)NCc2ccc(Nc3nccc(N(CCCO)c4cccc5[nH]ncc45)n3)cc21 [GTC000226B]
0.857 nM and 0.75 nM and 3.63 nM | NCCCN(c1ccnc(Nc2ccc3c(c2)S(=O)(=O)NC3)n1)c1cccc2[nH]ncc12 [GTC000227A]
2.45 nM and 1.1 nM and 2.07 nM and 1.38 nM and 3.35 nM and 1.47 nM and 2.08 nM and 7 nM and 4.35 nM and 2.02 nM and 5.36 nM and 2 nM and 3.66 nM and 2.13 nM and 2.86 nM | COCCCN(c1nc(Nc2ccc3c(c2)S(=O)(=O)NC3)ncc1F)c1cccc2[nH]ncc12 [GTC000228C]
1.41 nM and 1.19 nM and 2.47 nM | O=C(O)CCCCN(c1ccnc(Nc2ccc3c(c2)S(=O)(=O)NC3)n1)c1cccc2[nH]ncc12 [GTC000229A]
1.46 nM | O=S1(=O)NCc2ccc(Nc3ncc(F)c(N(CCCO)c4cccc5[nH]ncc45)n3)cc21 [GTC000230A]
1.42 nM | CC(=O)NCCCCN(c1ccnc(Nc2ccc3[nH]c(=O)[nH]c3c2)n1)c1cccc2[nH]ncc12 [GTC000231A]
2.05 nM | OCCN(c1ccnc(Nc2ccc3nn[nH]c3c2)n1)c1cccc2[nH]ncc12 [GTC000232A]
4.79 nM and 2.46 nM and 1.87 nM | Cc1nn(CCCO)c2cc(Nc3ncc(F)c(N(CCCO)c4cccc5[nH]ncc45)n3)ccc12 [GTC000234A]
9.64 nM and 1.94 nM and 1.64 nM | O=S1(=O)CCc2ccc(Nc3ncc(F)c(N(CCCCO)c4cccc5[nH]ncc45)n3)cc21 [GTC000235A]
2.69 nM and 1.48 nM and 4.88 nM and 4.34 nM | COCCCN(c1ccnc(Nc2ccc3c(c2)S(=O)(=O)NC3)n1)c1cccc2[nH]ncc12 [GTC000236A]
1.87 nM and 6.87 nM and 3.76 nM and 3.14 nM and 8.63 nM and 2.75 nM | CCN(c1nc(Nc2ccc3[nH]c(=O)[nH]c3c2)ncc1F)c1cccc2[nH]ncc12 [GTC000237B]
2.92 nM | COCCCN(c1ccnc(Nc2ccc3c(c2)COC(=O)N3)n1)c1cccc2[nH]ncc12 [GTC000238A]
3.16 nM | CS(=O)(=O)NCCCN(c1ccnc(Nc2ccc3[nH]c(=O)[nH]c3c2)n1)c1cccc2[nH]ncc12 [GTC000239A]
3.21 nM and 19 nM and 19.8 nM and 17.2 nM | CCN(c1nc(Nc2cccc(S(N)(=O)=O)c2)ncc1F)c1cccc2[nH]ncc12 [GTC000240B]

IC50 | Structure (SMILES)
2.9 nM | O=S1(=O)NCc2ccc(Nc3nccc(N(CCCCO)c4cccc5[nH]ncc45)n3)cc21 [GTC000241A]
3.61 nM and 9.62 nM and 1.58 nM and 2.77 nM and 3.88 nM | CCN(c1nc(Nc2ccc3c(C)nn(CCCO)c3c2)ncc1F)c1cccc2[nH]ncc12 [GTC000242A]
4.09 nM and 3.13 nM and 3.56 nM and 9.55 nM and 5 nM and 4.1 nM and 3.04 nM and 3.52 nM and 5.97 nM | CCCN(c1nc(Nc2ccc3c(c2)S(=O)(=O)NC3)ncc1F)c1cccc2[nH]ncc12 [GTC000243A]
3 nM and 3.31 nM and 5.53 nM | NCCCCCN(c1ccnc(Nc2ccc3c(c2)S(=O)(=O)NC3)n1)c1cccc2[nH]ncc12 [GTC000244A]
3.88 nM | O=C(O)CCCN(c1ccnc(Nc2ccc3c(c2)S(=O)(=O)NC3)n1)c1cccc2[nH]ncc12 [GTC000245A]
3.6 nM | COCCCN(c1ccnc(Nc2ccc3[nH]c(=O)[nH]c3c2)n1)c1cccc2[nH]ncc12 [GTC000246A]
4.25 nM | CCN(c1nc(Nc2ccc3cn[nH]c3c2)ncc1F)c1cccc2[nH]ncc12 [GTC000247A]
3.9 nM | CN(c1nc(Nc2ccc3c(c2)COC(=O)N3)ncc1F)c1cccc2[nH]ncc12 [GTC000248A]
11.6 nM and 1.99 nM | CN(c1nc(Nc2ccc3c(c2)S(=O)(=O)NC3)ncc1F)c1cccc2[nH]ncc12 [GTC000249A]
2.81 nM and 3.59 nM and 14.9 nM and 5.77 nM | CCN(c1nc(Nc2ccc3cnn(CCCO)c3c2)ncc1F)c1cccc2[nH]ncc12 [GTC000250A]
6.11 nM and 4.06 nM and 3.67 nM | O=S1(=O)CCc2ccc(Nc3ncc(F)c(N(CCCO)c4cccc5[nH]ncc45)n3)cc21 [GTC000251A]
4.94 nM | NCCCN(c1nc(Nc2ccc3c(c2)S(=O)(=O)CC3)ncc1F)c1cccc2[nH]ncc12 [GTC000252A]
5.19 nM | O=S1(=O)NCc2ccc(Nc3ncc(F)c(N(CC4CCOC4)c4cccc5[nH]ncc45)n3)cc21 (stereo unspecified) [GTC000253A]
4.75 nM | O=S1(=O)CCc2ccc(Nc3ncc(F)c(N(CCO)c4cccc5[nH]ncc45)n3)cc21 [GTC000254A]
4.63 nM | CCN(c1nc(Nc2ccc3cnn(C)c3c2)ncc1F)c1cccc2[nH]ncc12 [GTC000255A]
5.01 nM | O=c1[nH]c2ccc(Nc3nccc(N(CCCO)c4cccc5[nH]ncc45)n3)cc2[nH]1 [GTC000256A]
5.04 nM | COCCCN(c1ccnc(Nc2ccc3nn[nH]c3c2)n1)c1cccc2[nH]ncc12 [GTC000257A]
5 nM | O=C1Nc2ccc(Nc3nccc(N(CCO)c4cccc5[nH]ncc45)n3)cc2CO1 [GTC000258A]
5.02 nM | NS(=O)(=O)c1cccc(Nc2nccc(N(CCCO)c3cccc4[nH]ncc34)n2)c1 [GTC000259A]
5.48 nM | CCN(c1nc(Nc2ccc(C(N)=O)cc2)ncc1F)c1cccc2[nH]ncc12 [GTC000260A]
5.04 nM | CCN(c1nc(Nc2ccc(S(N)(=O)=O)cc2)ncc1F)c1cccc2[nH]ncc12 [GTC000261A]

IC50 | Structure (SMILES)
5.09 nM | O=c1[nH]c2ccc(Nc3ncc(F)c(N(CCCO)c4cccc5[nH]ncc45)n3)cc2[nH]1 [GTC000262A]
4.86 nM | COCCCN(c1nc(Nc2ccc3[nH]c(=O)[nH]c3c2)ncc1F)c1cccc2[nH]ncc12 [GTC000263A]
5.3 nM | CN(c1nc(Nc2ccc3[nH]c(=O)[nH]c3c2)ncc1F)c1cccc2[nH]ncc12 [GTC000264A]
5.6 nM | CN(c1nc(Nc2ccc3nn[nH]c3c2)ncc1F)c1cccc2[nH]ncc12 [GTC000265A]
6.27 nM | CCN(c1nc(Nc2ccc3nn[nH]c3c2)ncc1F)c1cccc2[nH]ncc12 [GTC000267A]
6.76 nM | CCN(c1nc(Nc2ccc3c(c2)COC(=O)N3)ncc1F)c1cccc2[nH]ncc12 [GTC000268A]
6.97 nM | NCCCCCN(c1ccnc(Nc2ccc3[nH]c(=O)[nH]c3c2)n1)c1cccc2[nH]ncc12 [GTC000269A]
6.95 nM | Cn1ncc2ccc(Nc3nccc(N(CCCO)c4cccc5[nH]ncc45)n3)cc21 [GTC000270A]
6.62 nM | CCN(c1nc(Nc2ccc(C(=O)NC)cc2)ncc1F)c1cccc2[nH]ncc12 [GTC000271A]
6.95 nM | CCN(c1nc(Nc2ccc3c(c2)CC(=O)N3)ncc1F)c1cccc2[nH]ncc12 [GTC000272A]
6.78 nM | COCCCN(c1nc(Nc2ccc3c(c2)COC(=O)N3)ncc1F)c1cccc2[nH]ncc12 [GTC000273A]
5.89 nM | Cn1ncc2ccc(Nc3nccc(N(CCCCO)c4cccc5[nH]ncc45)n3)cc21 [GTC000274A]
6.08 nM | OCCCCN(c1ccnc(Nc2ccc3nn[nH]c3c2)n1)c1cccc2[nH]ncc12 [GTC000275A]
5.98 nM | CN(c1nc(Nc2ccc3cnn(C)c3c2)ncc1F)c1cccc2[nH]ncc12 [GTC000276A]
7.19 nM and 7.62 nM | CCN(c1nc(Nc2ccc3c(c2)S(=O)(=O)CC3)ncc1F)c1cccc2[nH]ncc12 [GTC000277A]
7.98 nM | O=S1(=O)CCc2ccc(Nc3ncc(F)c(N(CC4CCCO4)c4cccc5[nH]ncc45)n3)cc21 (stereo unspecified) [GTC000278A]
7.52 nM | COCCCN(c1nc(Nc2ccc3c(C)nn(CCCO)c3c2)ncc1F)c1cccc2[nH]ncc12 [GTC000279A]
7.4 nM | NCCCCN(c1ccnc(Nc2ccc3[nH]c(=O)[nH]c3c2)n1)c1cccc2[nH]ncc12 [GTC000280A]
